Where two headings read alike, the source gives them in different places.

These results are taken from US9980943B2, “Methods of treating muscular dystrophy” (BOARD OF REGENTS OF THE NEVADA SYSTEM OF HIGHER EDUCATION, …, priority 2013, dated 2018).

This assay relates to α7 integrin (LacZ reporter in α7LacZ+/− myoblasts). The assay can be described thus: qHTS of the LOPAC library and MLSMR (online screen, α7LacZ+/− myoblasts). Conditions: for activation at 0.307 µM / activation at 1.53 µM / activation at 7.66 µM / activation at 38.3 µM / Emax / EC50: Mus musculus, Myoblast; for activation at 0.307 µM: read-out: Activity at 0.307 uM [%] **; for activation at 1.53 µM: read-out: Activity at 1.530 uM [%] **; for activation at 7.66 µM: read-out: Activity at 7.660 uM [%] **; for activation at 38.3 µM: read-out: Activity at 38.30uM [%] **; for EC50: read-out: Fit LogAC50 (converted); for Score: Table 8 Compound data. Background: In qHTS, concentration-response curves come from the screen itself.

[1] abbreviates: 48 h, read-out: Fit Infinite Activity [%].

Take `COc1ccc(Nc2ncnc3ccc(C)cc23)cc1` [Compound 58]: the EC50 is 3.55 µM. Where the note is “48 h”, the activation at 0.307 µM was -29.7%, the activation at 1.53 µM is 3.35%, the activation at 7.66 µM came out at 49.1% and the activation at 38.3 µM was 82.8%. In addition, the Emax under setting [1] is 95.6%. For the same compound, where the note is “read-out: Max Response [%]”, the Emax was 82.8%.

On to `O=C(N/N=C/c1cn[nH]c1-c1ccc(F)cc1)c1ccncc1` [Compound 128], for which, for the setting “48 h”, the activation at 0.307 µM came to 17.3%, the activation at 1.53 µM amounted to 12.6%, the activation at 7.66 µM was 22.6% and the activation at 38.3 µM came to 152%. In addition, under setting [1], the Emax turned out to be 154%. Further, the Emax (read-out: Max Response [%]) stood at 152%.

`COc1ccc(CN2CCNC(=O)C2CC(=O)NCCc2c[nH]c3ccccc23)c(OC)c1` (stereo not shown) [Compound 208]: the EC50 was 10 µM. Besides, for the setting “48 h”, the activation at 0.307 µM is -7.84%, the activation at 1.53 µM was -10.8%, the activation at 7.66 µM turned out to be 16.4% and the activation at 38.3 µM stood at 73.4%. Besides, under setting [1], the Emax amounted to 74.6%. The Emax (read-out: Max Response [%]) turned out to be 73.4%.

Regarding `CC(/C=C(\O)c1ccccc1)=N\c1ccc(Br)c(Cl)c1` [Compound 130], under “48 h”, the activation at 0.307 µM turned out to be 7.18%, the activation at 1.53 µM is 9.18%, the activation at 7.66 µM came to 26.1% and the activation at 38.3 µM was 127%. In addition, the Emax under setting [1] worked out at 128%. In addition, the Emax (read-out: Max Response [%]) amounted to 127%.

On to `COc1cccc(C(=O)NCC(=O)N2CCC3(CC2)NCCc2[nH]cnc23)c1` [Compound 93], for which the EC50 was 11.2 µM. In addition, where the note is “48 h”, the activation at 0.307 µM is -3.47%, the activation at 1.53 µM was determined as 0%, the activation at 7.66 µM is 36.3% and the activation at 38.3 µM came to 102%. The Emax under setting [1] is 114%. Besides, the Emax (read-out: Max Response [%]) came to 102%.

In the case of `CCOC(=O)/C(C(=O)c1ccccc1)=C(\N)NCCO` [Compound 222], under “48 h”, the activation at 0.307 µM amounted to 9.44%, the activation at 1.53 µM turned out to be 9.77%, the activation at 7.66 µM was determined as 16.5% and the activation at 38.3 µM turned out to be 66.5%. In addition, the Emax under setting [1] stood at 66.8%. Where the note is “read-out: Max Response [%]”, the Emax was 66.5%.

Turning to `Cc1ccccc1C(=O)Nc1scc(-c2ccc(Br)cc2)c1C(=O)O` [Compound 4], the EC50 was 2.82 µM. Besides, where the note is “48 h”, the activation at 0.307 µM was found to be 9.85%, the activation at 1.53 µM came out at 38.3%, the activation at 7.66 µM is 119% and the activation at 38.3 µM was found to be 137%. Also, the Emax under setting [1] is 137%.

For the compound `O=C(Cn1nc(-c2ccc(Cl)cc2)ccc1=O)N1CCC2(CC1)OCCO2` [Compound 221], where the note is “48 h”, the activation at 0.307 µM was 6.38%, the activation at 1.53 µM amounted to 7.87%, the activation at 7.66 µM came out at 16.8% and the activation at 38.3 µM is 66.1%. The Emax under setting [1] was found to be 66.5%. For the same compound, where the note is “read-out: Max Response [%]”, the Emax worked out at 66.1%.

In the case of `COc1ccc(/C=C(\NC(=O)c2ccc(C)cc2)C(=O)Nc2ccc(C(=O)O)cc2)cc1` [Compound 160], for the setting “48 h”, the activation at 0.307 µM is -2.5%, the activation at 1.53 µM is -3.36%, the activation at 7.66 µM amounted to 16% and the activation at 38.3 µM stood at 99.8%. For the same compound, the Emax under setting [1] is 101%. For the same compound, the Emax (read-out: Max Response [%]) amounted to 99.8%.

Regarding `CC(C)/N=C(\S)NN=C1CCCCCCCCCCC1` [Compound 36], the EC50 is 3.16 µM. Further, where the note is “48 h”, the activation at 0.307 µM was 7.67%, the activation at 1.53 µM was determined as 25.7%, the activation at 7.66 µM amounted to 65.1% and the activation at 38.3 µM turned out to be 78.6%. Besides, the Emax under setting [1] stood at 81.2%.

Take `COCc1c(C(=O)N/N=C(\C)c2ccc(OCc3ccccc3)cc2)nnn1-c1nonc1N` [Compound 143]: the EC50 is 10 µM. Also, where the note is “48 h”, the activation at 0.307 µM is 4.28%, the activation at 1.53 µM was found to be 4.88%, the activation at 7.66 µM was 22.4% and the activation at 38.3 µM turned out to be 80.8%. In addition, the Emax under setting [1] stood at 81.3%. Further, the Emax (read-out: Max Response [%]) turned out to be 80.8%.

For the compound `CCOc1ccc(NC(=O)CN2C(=O)NC(CCSC)C2=O)cc1` (stereo not shown) [Compound 180], the EC50 is 10 µM. For the same compound, under “48 h”, the activation at 0.307 µM worked out at 0%, the activation at 1.53 µM is -2.4%, the activation at 7.66 µM came to 21.3% and the activation at 38.3 µM amounted to 75.1%. The Emax under setting [1] came out at 76.1%. Besides, the Emax (read-out: Max Response [%]) was 75.1%.

Take `Cc1cccc(OCc2nc(C#N)c(N3CCCC3)o2)c1` [Compound 2]: the EC50 was 3.55 µM. Further, under “48 h”, the activation at 0.307 µM is 9.52%, the activation at 1.53 µM turned out to be 57%, the activation at 7.66 µM turned out to be 175% and the activation at 38.3 µM was 223%. Also, the Emax under setting [1] was 231%.

On to `COc1cc(/C=C/CN2CCN(Cc3ccc(C)o3)C(CCO)C2)ccc1O` (stereo not shown) [Compound 42], for which the EC50 was 14.1 µM. Further, for the setting “48 h”, the activation at 0.307 µM came to 20.1%, the activation at 1.53 µM amounted to 0%, the activation at 7.66 µM was found to be 32.1% and the activation at 38.3 µM is 481%. In addition, under setting [1], the Emax is 485%.

As to `O=C(Nc1cc(Br)ccc1O)C1CC(c2ccccc2Cl)=NO1` (stereo not shown) [Compound 108], the EC50 was 12.6 µM. Where the note is “48 h”, the activation at 0.307 µM was 2.03%, the activation at 1.53 µM is 3.14%, the activation at 7.66 µM was 15.3% and the activation at 38.3 µM amounted to 141%. Also, the Emax under setting [1] amounted to 142%. In addition, the Emax (read-out: Max Response [%]) was 141%.

Take `CCOc1ccc2oc(C(=O)OCC(=O)NC(=O)NC)c(C)c2c1` [Compound 115]: the EC50 is 7.08 µM. Moreover, for the setting “48 h”, the activation at 0.307 µM was -3.94%, the activation at 1.53 µM was found to be 0%, the activation at 7.66 µM amounted to 40.2% and the activation at 38.3 µM came out at 77.6%. Also, the Emax under setting [1] worked out at 80.7%. Further, the Emax (read-out: Max Response [%]) is 77.6%.

For the compound `O=Cc1ccc(C(=O)OCC(=O)N2CCCC2)cc1` [Compound 35], the EC50 is 2.51 µM. Also, for the setting “48 h”, the activation at 0.307 µM turned out to be 0%, the activation at 1.53 µM was determined as 12%, the activation at 7.66 µM came out at 71.5% and the activation at 38.3 µM was found to be 71.8%. For the same compound, the Emax under setting [1] turned out to be 72.6%.

Take `Cc1cc(N2CCOCC2)nc2ccc(N/C(S)=N/Cc3ccc4c(c3)OCO4)cc12` [Compound 122]: the EC50 is 10 µM. Besides, where the note is “48 h”, the activation at 0.307 µM came to 2.5%, the activation at 1.53 µM was determined as 11.5%, the activation at 7.66 µM turned out to be 54% and the activation at 38.3 µM turned out to be 107%. For the same compound, under setting [1], the Emax was 128%. For the same compound, the Emax (read-out: Max Response [%]) amounted to 107%.

`O=[N+]([O-])c1ccc(Cl)cc1N/N=C/c1ccncc1` [Compound 112]: the EC50 was 5.62 µM and the Score is 43. Besides, under “48 h”, the activation at 0.307 µM is 0%, the activation at 1.53 µM stood at 1.53%, the activation at 7.66 µM was 54% and the activation at 38.3 µM came out at 73.8%. Besides, the Emax under setting [1] was found to be 74%. Further, the Emax (read-out: Max Response [%]) is 73.8%.

Turning to `CC(C)(CC(=O)O)CC(=O)N1CCCN(c2nccc(C(F)(F)F)n2)CC1` [Compound 56], the EC50 was 3.98 µM. Further, where the note is “48 h”, the activation at 0.307 µM worked out at 24%, the activation at 1.53 µM is 38.1%, the activation at 7.66 µM is 86.7% and the activation at 38.3 µM is 108%. In addition, the Emax under setting [1] came out at 111%. The Emax (read-out: Max Response [%]) is 108%.

With `COc1ccc(NC(=O)c2cccc(N3C(=O)c4ccc(C(=O)Nc5ccc(OC)c(O)c5)cc4C3=O)c2)cc1O` [Compound 13], the EC50 is 4.47 µM. Further, where the note is “48 h”, the activation at 0.307 µM is -24.8%, the activation at 1.53 µM was -27.4%, the activation at 7.66 µM was found to be 80.7% and the activation at 38.3 µM was found to be 95.6%. In addition, under setting [1], the Emax turned out to be 94.7%.

For the compound `Cc1cc(C(=O)Nc2cccc3ccccc23)c(C)o1` [Compound 153], under “48 h”, the activation at 0.307 µM was -20.8%, the activation at 1.53 µM was -14.3%, the activation at 7.66 µM was 26.2% and the activation at 38.3 µM is 66%. Besides, the Emax under setting [1] is 74.5%. Also, the Emax (read-out: Max Response [%]) stood at 66%.

Turning to `C[C@H]1CNC(=O)c2c(C(=O)Nc3ccc(CNC(=O)OC(C)(C)C)cc3)ncn21` [Compound 88], the EC50 is 8.91 µM. For the same compound, under “48 h”, the activation at 0.307 µM amounted to 12.6%, the activation at 1.53 µM is 21.8%, the activation at 7.66 µM was 50.5% and the activation at 38.3 µM was 81.8%. Also, the Emax under setting [1] was determined as 98.4%. For the same compound, the Emax (read-out: Max Response [%]) is 81.8%.

Take `COC(=O)c1ccccc1NC(=O)c1cc[n+]([O-])cc1` [Compound 100]: the EC50 is 3.98 µM. In addition, under “48 h”, the activation at 0.307 µM was -24.5%, the activation at 1.53 µM was -4.99%, the activation at 7.66 µM is 30.1% and the activation at 38.3 µM came to 56.3%. The Emax under setting [1] was found to be 64%. For the same compound, for the setting “read-out: Max Response [%]”, the Emax came out at 56.3%.

In the case of `C=CCN(CC=C)C(=O)c1ccc(OC2CCN(S(=O)(=O)N(C)C)CC2)cc1` [Compound 64], the EC50 is 5.01 µM. In addition, for the setting “48 h”, the activation at 0.307 µM is -6.4%, the activation at 1.53 µM was determined as 3.46%, the activation at 7.66 µM was found to be 95.1% and the activation at 38.3 µM stood at 129%. Moreover, the Emax under setting [1] came to 130%. In addition, the Emax (read-out: Max Response [%]) is 129%.

As to `CN(C)C1(C/N=C/c2cc(Cl)cc([N+](=O)[O-])c2O)CCCCC1` [Compound 101], the EC50 is 8.91 µM and the Score is 43. Besides, under “48 h”, the activation at 0.307 µM was -14.2%, the activation at 1.53 µM was -11.6%, the activation at 7.66 µM was found to be 43.3% and the activation at 38.3 µM amounted to 104%. Further, under setting [1], the Emax stood at 116%. Besides, the Emax (read-out: Max Response [%]) came to 104%.
